For 87 molecules, melting point results are on record in a melting point compilation (Tetko et al.; mined from patent text by program, amines drawn as free bases though some values may be those of a salt).

As a reminder, the melting point is the temperature of the solid-liquid transition. `CCCCOc1nc(N)c2[nH]c(=O)n(CCCCN(CC(C)(C)CN(C)C)S(=O)(=O)c3cccc(CC(=O)O)c3)c2n1` registered a melting point of 175 to 176 °C. Next, `Cc1sc2cc(C3=NCC4(CCNCC4)S3)[nH]c2c1N(C)S(=O)(=O)c1cccs1`: 196 °C; `N#CC(N)c1ccc(F)cc1F` (configuration not stated): 52 °C. Next, `COCCOCc1nc2cnc3ccc(OCc4ccccc4)cc3c2n1C`: 128 to 132 °C; `O=C(O)c1cccnc1C(=O)c1ccccc1`: 115 to 121 °C. The figure for `Cc1ccc(C)n1C(C)c1ncccc1F` (configuration not stated) is 82 to 84 °C; for `Fc1ccc(/C=C/C2=CCN(Cc3c[nH]c4ncccc34)CC2)cc1` it is 211 to 213 °C; for `Cc1cc(NC(=O)C(C)(O)COc2ccccc2F)ccc1[N+](=O)[O-]` (configuration not stated) it is 94 to 96 °C. In turn, `CC(=O)CC(=O)CC(=O)c1cc(S(=O)(=O)c2ccccc2)ccc1[N+](=O)[O-]` returned a melting point of 143 to 145 °C. Molecule `CC(C)(C)OC(=O)C(Br)=CC1C(C(=O)O)C1(C)C` (configuration not stated) yielded a melting point of 76 °C. In turn, `CC(C)CNc1nc2cc(Cl)c(Cl)cc2n1[C@H]1O[C@@H](CO)[C@H](O)[C@@H]1O` registered a melting point of 136 °C.

`Cc1cccc(-c2[nH]c(C(C)C)nc2-c2cccc(-c3ccc(C(=O)NC4CCOCC4)cc3)c2)n1` had a melting point of 140 °C. Turning to `CC1CC(NC(=O)C(F)(F)F)=NN1c1ccc(C(=O)C(F)(F)F)cc1` (configuration not stated), the melting point lay in the range of 189 to 190 °C. `COC(=O)N(C)N=C(c1ccc(Cl)cc1)C(C)(C)C` displayed a melting point of 58 to 60 °C. In turn, `O=C(O)c1ccc(NCc2cc(Br)ccc2CCc2ccccc2)cc1` displayed a melting point of 132 to 134 °C. The figure for `CC(=O)NS(=O)(=O)c1ccc(-c2c(Cl)nc(C(F)(F)F)nc2-c2ccc(S(C)(=O)=O)cc2)cc1` is 230 to 235 °C.

`CCn1ncnc1COc1nc2c(cnn2-c2ccccc2)c2ccccc12`: the melting point fell in the range of 147 to 148 °C. In turn, `Cc1ccccc1-n1cnc(OC(C)C(=O)O)n1` (configuration not stated) registered a melting point of 151 to 153 °C. For the molecule `O=C1CCNc2c([N+](=O)[O-])cc(Cl)c(Cl)c21`, the melting point fell in the range of 175 to 176 °C.

`FC(F)(F)c1nc2ccc(Cn3ccnc3)cc2n1CC1CCCCC1` returned a melting point of 165 °C. Next, `CC(C)(C)Oc1nc2cc(F)c([N+](=O)[O-])cc2[nH]c1=NC#N`: 161 to 164 °C; `CC1(CCS)CN2CCCC(C(=O)O)N2C1=O` (configuration not stated): 119 to 122 °C. Next, `CSc1nccc(C)c1NC(=O)CCCCCSc1nc2ccccc2o1`: 122 to 124 °C. For `Cc1cnc(C(=O)c2[nH]c3ccc(Cl)cc3c2CC(=O)O)s1`, the melting point was 231 to 233 °C. With `COc1cc(COc2nn(-c3ccccc3)cc2C=O)ccc1OCc1sc(-c2ccccc2)nc1C`, the melting point fell in the range of 171 to 172 °C.

`COc1cc2c(cc1OC)-c1cc(Cl)nc(=O)n1CC2` showed a melting point of 235 to 236 °C. The figure for `CNC(=S)NS(=O)(=O)c1cc(CCNC(=O)c2cc(Cl)ccc2OC)ccc1OCCOC` is 134 °C; for `CCCCC12CCC3c4ccc(OC)cc4CCC3C1CCC2O` (configuration not stated) it is 123 to 125 °C; for `Cc1ncccc1-c1nc(C(F)(F)F)cn1-c1ccc(S(C)(=O)=O)cc1` it is 160 to 161 °C. Next, `Cc1ccc(NC(=O)c2cc(Cl)ccc2NCC2CCN(C3CCCCC3)CC2)nc1`: 176 to 178 °C.

As for `COc1cccc(C23CCCC(C2)N(C)C3=O)c1` (configuration not stated), the melting point is 68 to 70 °C.

Molecule `Cc1cccc(NC(=O)NC2N=C(C3CC3)c3cccc(C)c3N(CC(=O)N3CC4CCC(CC4)C3)C2=O)c1` (configuration not stated) yielded a melting point of 172 to 174 °C. As for `Oc1ccc(C2(c3ccc(O)cc3)CCCCCC2)cc1`, the melting point was in the range of 208 to 209 °C. Turning to `CC(=O)c1c(C)nc(C)nc1NCc1ccc(-c2ccccc2-c2nnnn2C(C)(C)C)cc1`, the melting point lay within 131 to 132 °C.

With `CC(C)(C)OCc1cc(Oc2ccc(C(F)(F)F)cc2Cl)ccc1[N+](=O)[O-]`, the melting point was in the range of 75 to 78 °C. `CS(=O)(=O)N1CCC(Nc2ncc3cc(Cc4ccccn4)c(=O)n(C4CCCC4)c3n2)CC1`: the melting point lay within 220 to 223 °C. The molecule `Cc1ccc(S(=O)(=O)Nc2nc(-c3ccc(OCc4ccccc4)cc3)cs2)cc1` gave a melting point of 166 to 167 °C. Take `Cc1cccc(NC(=O)NC2N=C(C3CCCCC3)c3cccc(C)c3N(CC(=O)C3CCCCC3)C2=O)c1` (configuration not stated): the melting point was 159 to 170 °C. `CCOC(=O)COc1cccc(-c2n[nH]c3c2Cc2ccccc2-3)c1` gave a melting point of 134 to 136 °C. Take `CCOC(=O)c1cnc2c(C)csc2c1Nc1ccccc1C`: the melting point was in the range of 132 to 134 °C. Molecule `CCNc1nc(SC)ncc1CNc1cc(OC)cc(OC)c1Cl` returned a melting point of 116 to 118 °C. `Cc1nnc2n1-c1sc(C#CCCN3C(=O)c4cccc5cccc(c45)C3=O)cc1C(c1ccccc1Cl)=NC2` yielded a melting point of 175 to 179 °C. On to `CCCCc1nn(-c2ccccc2Cl)c(=O)n1Cc1ccc(-c2ccccc2S(=O)(=O)NC(=O)C(F)(F)F)cc1`, for which the melting point lay in the range of 163 to 166 °C.

The molecule `Cc1ccc(C(=O)c2noc(CC(N)=O)n2)cc1` yielded a melting point of 169 to 171 °C.

For the molecule `O=C(CCCCCBr)c1cc2c3c(c1)CCN3C(=O)CC2`, the melting point was in the range of 97 to 98 °C. As to `NC(=O)c1ccc(C(=O)Nc2ccc(-n3nc(C(F)(F)F)cc3C(F)(F)F)cc2)cc1`, the melting point was in the range of 290 to 291 °C. `CCN(CC)CCOc1ccc(Nc2ncc3c(n2)N(CC)C(=O)N(c2c(Cl)cccc2Cl)C3)cc1` showed a melting point of 85 °C. On to `COc1cc(CO)cc(OC)c1OCCO`, for which the melting point is 26 to 28 °C.

For `CC12CCC(=O)C=C1CCC1C2CCC2(C)C(C(=O)c3ccccc3)CCC12` (configuration not stated), the melting point was in the range of 171 to 173 °C. Next, `C[C@@H](O)[C@H]1C(=O)N([Si](C)(C)C(C)(C)C)[C@@H]1CC(=O)[Si](C)(C)C`: 82 to 84 °C; `COc1cc(OCc2ccccn2)ccc1/C=C/c1cc(/C=C/c2ccc3ccn(S(C)(=O)=O)c3c2)n[nH]1`: 212 to 214 °C. `Fc1cc(F)cc(-c2nc(-c3ccccn3)no2)c1` had a melting point of 115 to 119 °C.

For `O=C(C=Cc1cccc(F)c1)c1cnc2sc3c(n12)CCCCC3`, the melting point fell in the range of 176 to 177 °C. The figure for `O=c1oc2ccccc2c2oc(=S)c(-c3ccccc3)cc12` is 256 to 257 °C; for `O=C(O)CS(=O)(=O)c1ccc2c(-c3ccc(Cl)cc3)noc2c1` it is 201 to 203 °C. Next, `NS(=O)(=O)c1ccc(-c2cnn(Cc3ccc(F)cc3)c(=O)c2-c2ccc(F)cc2)cc1`: 237 to 239 °C; `CSc1nc2ccc(C)cc2c(=O)s1`: 114 °C; `CC(C)SC1=C(O)CC(C)(C)CC1=O`: 74.5 to 79.5 °C. The molecule `COc1nc(NC(=O)NS(=O)(=O)c2ccccc2C(=O)OCCCl)nc(OC)n1` registered a melting point of 171 to 174 °C.

Take `Cc1ccc([N+](=O)[O-])c(C)c1C(=O)c1c[nH]cn1`: the melting point was in the range of 245 to 249 °C.

Take `CC(C)(C)C(NC(=O)c1ccccc1)Nc1c(Nc2cccnc2)c(=O)c1=O` (configuration not stated): the melting point was in the range of 246 to 247 °C. For the molecule `Cc1nc(C=CNC(=O)c2cccc(C(F)(F)F)c2)n[nH]1`, the melting point was 153 to 154 °C. As to `CN(C)c1c(-c2ccccc2)sc2ccc(Cl)cc12`, the melting point was in the range of 79 to 81 °C. Next, `C[C@H](N)C(=O)N(C(=O)OCc1ccccc1)c1ccccc1`: 161 to 163 °C. In the case of `Cc1nnc2nc(-c3ccccc3)c3cc([N+](=O)[O-])ccc3n12`, the melting point lay in the range of 350 to 352 °C. As for `COc1ccc2c(c1)C(=O)N(c1ccc3ccn(CC#N)c3c1)C2`, the melting point was in the range of 218 to 220 °C.

For `CON=Cc1c(S(N)(=O)=O)ccn1C`, the melting point lay in the range of 120 to 122 °C. Molecule `Cc1ccc2oc(-c3ccccc3-c3nnn[nH]3)c(Br)c2c1` had a melting point of 167 to 168 °C. `CSC(C)(C(=O)O)c1ccc(CC(C)C)cc1` (configuration not stated) showed a melting point of 89 to 92 °C.

Turning to `O=C(Cn1nnnc1-c1ccccc1)OCCO`, the melting point fell in the range of 54 to 55 °C. The molecule `COc1ccc(OC)c(C=CCN2CCc3nc(N)sc3CC2)c1` gave a melting point of 112 to 115 °C. Molecule `CC(=O)/C=C(\C)c1ccc(-c2ccccc2)c(F)c1` came in with a melting point of 103 °C.

`COc1cc(N(CC(C)C)CC(C)C)ccc1CN1C(=O)C(C)(c2ccccc2Cl)c2cc(Cl)ccc21` (configuration not stated): the melting point was 153 °C. Regarding `Cc1nnc(-c2cc(O)c(O)c([N+](=O)[O-])c2)o1`, the melting point lay in the range of 245 to 246 °C. For `Cc1cccc(C(=O)NC(Nc2c(Nc3cccnc3)c(=O)c2=O)C(C)(C)Cc2ccccc2)c1` (configuration not stated), the melting point lay within 234 to 235 °C. The figure for `OCCCn1c(-c2c(Cl)cccc2Cl)nc(-c2ccncc2)c1-c1ccc(Cl)cc1` is 233 to 235 °C; for `O=C(O)C(=O)c1ccc(OCCOc2cccc(F)c2)cc1` it is 108 to 109 °C. On to `CC(C)([C@H](NC(=O)OCC1c2ccccc2-c2ccccc21)C(=O)O)S(C)(=O)=O`, for which the melting point was 189 to 192 °C. In turn, `CCOCc1nc2c(N)nc3cc(-c4cccc(C(=O)O)c4)ccc3c2n1CC(C)(C)O` had a melting point above 250 °C. The molecule `COC(=O)c1cccc(NC(=O)CSC(C)=O)c1` yielded a melting point of 118 to 120 °C. `O=C(NCc1c[nH]c(=S)n1[C@H]1CCc2c(F)cc(F)cc2C1)c1ccccn1` came in with a melting point of 216 to 217 °C. The molecule `CN1CCN(c2cc3c(cc2F)c(=O)n(O)c(=O)n3-c2ccc(F)c(Cl)c2)CC1` showed a melting point of 197 to 199 °C. In turn, `COc1ncc([N+](=O)[O-])c(OC)n1` registered a melting point of 92 to 93 °C.

As for `Fc1cc2c(cc1CN1CCOCC1)Cc1c(-c3ccsc3)n[nH]c1-2`, the melting point came out at 222 °C. `Cc1cc(-c2cnn3c(C(F)(F)F)cc(-c4ccc(Cl)cc4)nc23)ccn1` had a melting point of 220 °C. Molecule `CCCCCCCCCCCc1nc2c(O)c(Cl)cc(Cl)c2cc1CCCCCCCCCC` yielded a melting point of 46 to 47 °C.

On to `Cc1ccc(C(=O)NC(Cc2ccccc2)NC(=S)Nc2cccc([N+](=O)[O-])c2)cc1` (configuration not stated), for which the melting point lay within 170 to 171 °C.
